Tests used:
[1] = molecular target: α (avr-14b) GluClRs (Haemonchus contortus, UniProt O46124); test: Two-electrode voltage clamp in oocytes, α GluClRs; assay type: cell-based, H. contortus; conditions: for efficacy (maximal current normalised to saturating glutamate) compared to IVM: 30 nM, normalised to 5 mM glutamate
Protocol: (§1) cDNAs encoding the α (avr-14b) (pcDNA 3.1+) or β (pUNIV) GluClR subunits of H. contortus were nuclear injected into oocytes (NASCO, WI USA) or transfected into HEK293AD cells (CellBank Australia) using a calcium phosphate-DNA co-precipitate method. Synapse formation between neurons and HEK293 cells was promoted by co-transfecting neuroligin 2A or 1B and the cDNA encoding CD4 surface antigen was also added to the transfection mixture so as to identify transfected cells. The oocytes and HEK cells were used for experiments 2–3 days after the introduction of the cDNAs. All experiments were done at room temperature (22 ± 1°C).
(§2) Xenopus laevis oocytes were harvested by surgical incision. The oocytes were then defolliculated with 1.5 mg/ml collagenase for 2 hours. Free oocytes were rinsed with calcium-free OR-2 solution containing (in mM) 82.5 NaCl, 2 KCl, 1 MgCl2, 5 HEPES, pH 7.4 and mature stage V or VI oocytes were isolated for experiments. The DNAs coding for α and β subunits were nuclear injected into the oocytes using a Nanoliter 2000 microinjector (WPI Inc) at a ratio of (α:β), 1:0, 0:1, 1:1 and 1:50. The total amount of injected DNA in all combinations was 400 ng ml^−1, including the 1:50 (α:β) combination (8 ng of DNA encoding the α and 392 ng of DNA encoding β subunits). Injected oocytes were incubated in ND96 storage solution (in mM) 96 NaCl, 2 KCl, 1 MgCl2.6H2O, 1.8 CaCl2, 5 HEPES, 50 μg ml^−1 gentamicin, 2.5 sodium pyruvate, 0.5 theophylline, pH 7.4 at 16°C for 2–3 days before experiment.
(§3) For the two-electrode voltage clamp recordings, each oocyte was secured in a cell bath that was continually perfused with ND96 recording solution (ND96 storage solution without pyruvate, theophylline and gentamicin). […] The two microelectrodes contained 3 M KCl and had resistances of 0.2–2 MΩ. Recordings were done using Clampex 10.2 software (Molecular Devices) at a clamped voltage of −40 mV. Currents were low-pass filtered at 200 Hz, sampled at 2 kHz using a Gene Clamp 500B amplifier and digitised by a Digidata 1440A interface. The IVM (IVM B1a) concentration-response experiments were standardised by using an application protocol that consisted of applying increasing concentrations of IVM for, respectively, 3 min, 3 min, 3 min, 2 min, 1 min, 1 min and 0.5 min.
(§4) Group data were analysed in SigmaPlot 13.0 using one-way ANOVAs, where p < 0.05 was taken as the significance threshold and expressed as mean ± SEM. Tests for normally distributed data are built into the SigmaPlot software. Confocal images were captured and analysed with Zen 2012 SP2 (Zeiss) software. Oocyte concentration-response data were fit to a Hill equation to obtain an EC50 and Hill co-efficient for each oocyte recording. These parameters were then averaged across multiple oocyte experiments of the same type. Single channel recordings were analysed in QuB software. […] The selected critical times eliminated periods of receptor desensitisation while retaining singe receptor active periods. Mean active period duration and intra-activation open probability was estimated from each patch. Group means were obtained by averaging across multiple patches for each recording condition.

[2] = molecular target: αβ (1:50) GluClRs (Haemonchus contortus, UniProt O46124+P91730); test: Two-electrode voltage clamp in oocytes, αβ (1:50) GluClRs; assay type: cell-based, H. contortus; conditions: 30 nM; for efficacy (maximal current normalised to saturating glutamate) compared to IVM: normalised to 5 mM glutamate, αβ 1:50; for differential efficacy between α and αβ (1:50) GluClRs: α versus αβ (1:50)
Chain of αβ (1:50) GluClRs (O46124 entry or part of it): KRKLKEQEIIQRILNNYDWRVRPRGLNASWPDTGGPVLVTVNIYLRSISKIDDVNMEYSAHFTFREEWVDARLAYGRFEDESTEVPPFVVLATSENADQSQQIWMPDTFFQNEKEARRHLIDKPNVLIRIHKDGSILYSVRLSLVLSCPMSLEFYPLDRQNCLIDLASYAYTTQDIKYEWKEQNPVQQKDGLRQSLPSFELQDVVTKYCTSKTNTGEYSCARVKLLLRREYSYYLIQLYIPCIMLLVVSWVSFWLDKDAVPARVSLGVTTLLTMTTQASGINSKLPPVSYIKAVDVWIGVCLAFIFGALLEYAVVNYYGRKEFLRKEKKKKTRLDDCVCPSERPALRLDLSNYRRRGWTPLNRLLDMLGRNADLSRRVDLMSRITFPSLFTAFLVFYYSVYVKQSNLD
Chain of αβ (1:50) GluClRs (P91730 19-432): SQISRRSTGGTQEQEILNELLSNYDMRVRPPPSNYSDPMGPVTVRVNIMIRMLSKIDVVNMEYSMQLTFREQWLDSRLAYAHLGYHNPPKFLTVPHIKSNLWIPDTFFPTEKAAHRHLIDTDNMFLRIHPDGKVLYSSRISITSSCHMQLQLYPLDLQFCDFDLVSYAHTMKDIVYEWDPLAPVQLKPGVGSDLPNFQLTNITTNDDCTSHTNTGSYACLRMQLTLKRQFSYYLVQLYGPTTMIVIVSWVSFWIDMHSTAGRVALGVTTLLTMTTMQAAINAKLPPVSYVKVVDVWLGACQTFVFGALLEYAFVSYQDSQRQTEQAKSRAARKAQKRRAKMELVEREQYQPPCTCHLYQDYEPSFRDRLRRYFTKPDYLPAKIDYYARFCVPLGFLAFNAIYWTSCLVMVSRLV
Protocol: as §1, §2, §3, §4

[3] = test system: Untransfected HEK293 cells; test: Fluorescence recovery after photobleaching (FRAP), lateral membrane diffusion
Protocol: The second experiment was aimed at determining the lateral membrane diffusion properties of IVM using the fluorescence recovery after photobleaching (FRAP) technique. After a 30-min equilibration time, 5 cells were monitored for fluorescence recovery within a bleached circular patch of membrane of 3.7 μm diameter (Fig 8C). Any bleaching and recovery of the surrounding area of the cell was measured, using a similar circular patch and used to correct the recovery rate of the membrane delineated by the bleached area. We also noted that the recovery reached 98 ± 2% of control. The time constant (τ) for recovery of 1.3 minutes was used to calculate the diffusion coefficient (D), using the radius (r) of the bleached patch, according to D = r^2/4τ. The calculated value of D was 1.1 x 10^−2 μm^2s^−1. Over the course of 1 s, the IVM-bdpy probe would traverse 0.2 μm along the membrane surface (lateral diffusion rate of 0.2 μms^−1). […] We infer that this slow lateral diffusion rate coupled to membrane partitioning are the major contributors to local increases of IVM around its target binding sites and the slow quasi-irreversible actions of IVM at GluClRs.
(§5) Membrane partitioning and FRAP experiments were performed on an LSM 710 inverted 2-photon confocal microscope equipped with a 40X water immersion objective lens (1.2 NA/280 μM WD/0.208 μM/pixel and a GFP/Alexa 488 filter set. Untransfected HEK293 cells at a confluency of 50–75% were plated onto 35-mm glass bottom dishes one day prior to experiments. The IVM-bdpy fluorophore was dissolved in 100% DMSO and stored at ‐20°C at a concentration of 24 mM.
(§6) A Mai Tai eHP 2-photon laser/760-1040 nm was used as an excitation source (power at 920 nm) for the FRAP experiments. The laser and bleaching power were set to 7% and 75% respectively. Membrane partitioning images were taken for 35 min at 0.5 Hz after replacing the cell medium (extracellular solution) with one containing the IVM-bdpy probe at a concentration of 500 nM. FRAP images were taken at a frequency of 0.5 Hz for 10 min after a 30 min equilibration period in 500 nM IVM-bdpy.

[4] = test system: Untransfected HEK293 cells; test: Membrane partitioning, time-lapse fluorescence; conditions: 500 nM; for membrane accumulation time constant: change in membrane fluorescence over 30 min, exponential fit
Protocol: Two types of experiments were conducted with IVM-bdpy. The first was aimed at monitoring the time-course of membrane accumulation. Untransfected HEK293 cells were incubated in extracellular solution containing 500 nM IVM-bdpy and time-lapse images were taken over a period of 30 min (Fig 8A). The change in total membrane fluorescence averaged from 5 repeat experiments was then plotted against time and fitted to a standard exponential function (Fig 8B). In a control experiment, the corresponding accumulation rate was also determined for bdpy. To obtain the net membrane partitioning time-course for IVM-1, the data for the bdpy alone was subtracted from the data obtained for IVM-bdpy (Fig 8B). The time constants for the three plots were 6.5 min for the IVM-bdpy, 8.2 min for the bdpy fluorophore and 6.0 min for IVM-1. As the lipophilic properties of IVM and IVM-1 are similar (logPs of 5.4 and 5.1, respectively), we infer this analysis quantitatively reflects the membrane partitioning properties of IVM. […] It should be noted, however, that the IVM-bdpy experiment was done using a 100-fold higher concentration of drug in un-transfected cells and represents passive membrane accumulation, whereas the current plateau involved IVM binding to and activating receptors.
as §5, §6

[5] = test system: α GluClRs; test: IPSC recording in HEK293-neuron heteroculture, α GluClRs; assay type: cell-based, H. contortus; conditions: HEK293-neuron co-culture, −70 mV
Protocol: as §1
Primary neuronal cultures were prepared from cortices of E18 rat embryos, (University of Queensland Biological Services), which were triturated and plated at 100,000 cells per 18-mm poly-D-lysine-coated coverslip in DMEM with 10% fetal bovine serum. After 24 h the entire medium was replaced with Neurobasal medium that included 2% B27 and 1% GlutaMAX supplements. After one week half of this medium was replaced and the neurons were allowed to grow in vitro for 3–5 weeks before introducing the transfected HEK293 cells. Recordings of synaptic currents were done in whole-cell configuration at ‐70 mV using an Axopatch 200B amplifier (Molecular Devices), filtered at 5 kHz and digitized at 20 kHz using Clampex (pClamp 10 suite, Molecular Devices) via a Digidata 1440A digitizer.

Chain of α (avr-14b) GluClRs (O46124 entry or part of it): as the sequence (O46124 entry or part of it) above

| Compound | efficacy (maximal current normalised to saturating glutamate) compared to IVM [1] | efficacy (maximal current normalised to saturating glutamate) compared to IVM [2] | differential efficacy between α and αβ (1:50) GluClRs [2] | membrane accumulation time constant [4] [min] | further results |
| --- | --- | --- | --- | --- | --- |
| CC[C@H](C)[C@H]1O[C@]2(CC[C@@H]1C)C[C@@H]1C[C@@H](C/C=C(\C)[C@@H](OCOC)[C@@H](C)/C=C/C=C3\CO[C@@H]4[C@H](O)C(C)=C[C@@H](C(=O)O1)[C@]34O)O2 [IVM-2] | restored efficacy | preservation of efficacy | abolished the differential sensitivity |  |  |
| CC[C@H](C)[C@H]1O[C@]2(CC[C@@H]1C)C[C@@H]1C[C@@H](C/C=C(\C)[C@@H](OCOC)[C@@H](C)/C=C/C=C3\CO[C@@H]4[C@@H](O)C(C)=C[C@@H](C(=O)O1)[C@]34O)O2 [IVM-3] | most marked reduction in potency | most marked reduction in potency | ablated the differential efficacy |  |  |
| CCC1=C(C)C2=C(c3ccc(OCc4cn(CCCC(=O)O[C@@H]5/C(C)=C/C[C@@H]6C[C@@H](C[C@]7(CC[C@H](C)[C@@H]([C@@H](C)CC)O7)O6)OC(=O)[C@@H]6C=C(C)[C@@H](O)[C@H]7OC/C(=C\C=C\[C@@H]5C)[C@]76O)nn4)cc3)c3c(C)c(CC)c(C)n3[B-](F)(F)[N+]2=C1C [IVM-bdpy] |  |  |  | 6.5 | potency relative to IVM ([1]; concentration-response, n = 6): reduced potency; activity at α GluClRs ([1]; oocyte current): active; FRAP recovery time constant (τ) ([3]; 500 nM, 30 min equilibration): 1.3 min; diffusion coefficient (D) ([3]; calculated by D = r^2/4τ): 1.1 x 10^−2 μm^2s^−1; lateral diffusion rate ([3]; in cell membrane): 0.2 μms^−1; time to saturate whole cell membranes [4]: about 18 minutes |
| C#CCOc1ccc(C2=C3C(C)=C(CC)C(C)=[N+]3[B-](F)(F)n3c(C)c(CC)c(C)c32)cc1 [bdpy] |  |  |  | 8.2 |  |
| picrotoxin |  |  |  |  | effect on IPSCs [5]: blocked |

— PMC6368337, “GluClR-mediated inhibitory postsynaptic currents reveal targets for ivermectin and potential mechanisms of ivermectin resistance” (PLoS Pathogens, 2019)
